Assay results from US9907307B2, “Aromatic compound and uses thereof” (SUMITOMO CHEMICAL COMPANY, LIMITED, priority 2014, dated 2018).

Tested on: wheat septoria tritici blotch fungus (Mycosphaerella graminicola)
Assay: Control test against wheat septoria tritici blotch fungus, titer plate growth (Test Example 1)
Assay type: cell-based
Conditions: 150 ppm in DMSO, 1 μl in 150 μl medium, 96-well plate, 18° C., 4 days

CCOC(=O)C(=O)c1ccccc1COc1ccc(-c2cc(Cl)n(C)n2)cc1C [present compound 1]
control activity (Equation 1, degree of growth by absorbance at 550 nm): ≥ 70%
